In patent US9102648B1, “Bioavailable diacylhydrazine ligands for modulating the expression of exogenous genes via an ecdysone receptor complex” (Intrexon Corporation, priority 2003, dated 2015):
Read-outs that look alike come from different tables or passages of the source.

Key:
[1] = molecular target: T1, Bombyx mori EcR (VP16 fusion, CVBE switch construct) (Bombyx mori, UniProt P49881); assay: Z3 Assay (HEK-293 cells with CVBE and 6XEcRE LacZ, β-galactosidase reporter); details: for fold induction at 3.3 µM: HEK293, read-out: Fold Induction, Z3 Assay, 3.3 uM; for fold induction at 33 µM: HEK293, read-out: Fold Induction, Z3 Assay, 33 uM; for Z3 assay Rel Max FI: maximum fold induction at any concentration relative to that of GS-E ligand
T1 sequence (P49881 86-606): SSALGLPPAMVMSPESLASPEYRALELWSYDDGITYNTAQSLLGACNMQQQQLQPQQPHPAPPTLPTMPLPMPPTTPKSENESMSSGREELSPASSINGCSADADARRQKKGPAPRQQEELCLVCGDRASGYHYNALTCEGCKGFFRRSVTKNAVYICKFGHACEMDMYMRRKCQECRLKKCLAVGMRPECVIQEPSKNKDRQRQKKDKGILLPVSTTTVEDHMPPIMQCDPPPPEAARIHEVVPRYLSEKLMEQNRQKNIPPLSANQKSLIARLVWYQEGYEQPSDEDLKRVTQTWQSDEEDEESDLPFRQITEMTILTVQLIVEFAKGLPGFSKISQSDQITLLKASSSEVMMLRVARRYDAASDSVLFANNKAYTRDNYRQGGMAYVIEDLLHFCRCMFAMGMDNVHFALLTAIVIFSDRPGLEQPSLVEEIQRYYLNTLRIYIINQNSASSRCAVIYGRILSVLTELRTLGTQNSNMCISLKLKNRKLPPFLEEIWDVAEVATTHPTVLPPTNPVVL
T1 sequence (P19793 1-462 partner): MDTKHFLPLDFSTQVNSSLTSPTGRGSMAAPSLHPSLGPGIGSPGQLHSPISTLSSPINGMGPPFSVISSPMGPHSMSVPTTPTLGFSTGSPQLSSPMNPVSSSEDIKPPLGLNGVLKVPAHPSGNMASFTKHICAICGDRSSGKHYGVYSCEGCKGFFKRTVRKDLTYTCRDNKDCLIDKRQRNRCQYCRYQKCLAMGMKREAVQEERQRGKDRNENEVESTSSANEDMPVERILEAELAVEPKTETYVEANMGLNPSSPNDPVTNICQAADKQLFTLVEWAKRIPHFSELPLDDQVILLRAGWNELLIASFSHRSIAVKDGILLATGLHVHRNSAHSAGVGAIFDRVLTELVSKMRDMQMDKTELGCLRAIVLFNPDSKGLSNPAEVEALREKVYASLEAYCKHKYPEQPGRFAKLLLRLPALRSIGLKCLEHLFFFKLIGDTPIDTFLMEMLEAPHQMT

[2] = Determination of LC Log P (experimental); type: physicochemical; details: for logP: diacylhydrazine log P standards (log P known experimentally)
Protocol: Liquid chromatography retention times (RT) are measured for each substance using the conditions described below. A linear equation is derived relating RT to log P is developed from the data for the log P standards. The log P for the test compound is calculated from the log P/retention time equation.

[3] = from LC retention time against log P standards, read-out: LC LogP (exp)

Compound | EC50 [1] [nM] | fold induction at 3.3 µM [1] | fold induction at 33 µM [1] | Z3 assay Rel Max FI ([1]; HEK-293 Z3 cells) | chromatographic logP [2, 3] | logP [2] | chromatographic logP [2] | Fold Induction, Z3 Assay, 3.3 uM ([1]; 3.3 uM ligand, ligand treated / DMSO treated cells, average of two wells) | Fold Induction, Z3 Assay, 33 uM ([1]; 33 uM ligand, ligand treated / DMSO treated cells, average of two wells) | EC50 ([1]; read-out: Z3 assay EC50, HEK-293 Z3 cells, β-galactosidase reporter, average of two wells) [nM] | LC LogP (exp) ([2]; from LC retention time against log P standards)
CCc1c(C(=O)NN(C(=O)c2cc(C)cc(Cl)c2)C(C)(C)C)ccc2c1OCCO2 [RG-101494, N-(5-ethyl-1,4-benzodioxan-6-carbonyl)-N′-(tert-butyl)-N′-(3-chloro-5-methylbenzoyl)hydrazine] | 79 | 832 | 384 | 1.093 | 4.3 |  |  |  |  |  | 
CCc1ccc(C(=O)NN(C(=O)c2cc(C)cc(C)c2)C(C)(C)C)c(F)c1 [RG-101523, 3,5-Dimethyl-benzoic acid N-tert-butyl-N′-(4-ethyl-2-fluoro-benzoyl)-hydrazide] | 242 | 704 | 596 |  | 4.35 |  |  |  |  |  | 
CCc1c(OC)cccc1C(=O)NN(C(=O)c1cc(C)cc(C)c1)C(C)(C)C [RG-102240, N-(3-methoxy-2-ethylbenzoyl)-N′-(3,5-dimethylbenzoyl)-N′-tert-butylhydrazine] | 286 |  |  | 1 | 4.2 | 4.2 |  |  |  |  | 
Cc1cc(C)cc(C(=O)N(NC(=O)c2ccc3c(c2C)OCCO3)C(C)(C)C)c1 [RG-102317, N-(5-methyl-1,4-benzodioxan-6-carbonyl)-N′-(tert-butyl)-N′-(3,5-dimethylbenzoyl)hydrazine] |  | 416 | 1500 |  |  |  | 3.6 |  |  |  | 
COc1cccc(C(=O)NN(C(=O)c2cc(C)cc(C)c2)C(C)(C)C)c1C [RG-102398] | 95 | 535 | 1970 | 1.027 |  | 3.7 |  |  |  |  | 
COc1cc(C(=O)N(NC(=O)c2ccc3c(c2C)OCCO3)C(C)(C)C)cc(OC)c1O [RG-115009, 4-Hydroxy-3,5-dimethoxy-benzoic acid N-tert-butyl-N′-(5-methyl-2,3-dihydro-benzo[1,4]dioxine-6-carbonyl)-hydrazide] | 3310 | 35 | 472 | 0.916 | 1.9 |  |  |  |  |  | 
COc1cc(C(=O)N(NC(=O)c2ccc3c(c2C)OCCO3)C(C)(C)C#N)cc(OC)c1C [RG-115092, N-(5-methyl-1,4-benzodioxan-6-carbonyl)-N′-(2-cyano-2-propyl)-N′-(3,5-dimethoxy-4-methylbenzoyl)hydrazine] | 37 | 351 | 302 | 0.917 | 3.5 |  |  |  |  |  | 
COc1ccc(C(=O)N(NC(=O)c2ccc3c(c2C)OCCO3)C(C)(C)C)c(OC)n1 [RG-115517, 2,6-dimethoxy-nicotinic acid N-tert-butyl-N′-(5-methyl-2,3-dihydro-benzo[1,4]dioxine-6-carbonyl)-hydrazide] | 89 | 408 |  | 0.923 | 3.15 |  |  |  |  |  | 
Cc1c(C(=O)NN(C(=O)c2cc(F)c(F)c(F)c2)C(C)(C)C)ccc2c1CCCO2 [RG-115575, 3,4,5-Trifluoro-benzoic acid N-tert-butyl-N′-(5-methyl-chroman-6-carbonyl)-hydrazide] | 102 | 282 | 785 | 0.886 | 4.1 |  |  |  |  |  | 
CCc1c(OC)cccc1C(=O)NN(C(=O)c1cc(C)cc(C=NNC(=O)C(N)=O)c1)C(C)(C)C [RG-115613, oxamic hydrazone of N-(3-formyl-5-methyl-benzoyl)-N-tert-butyl-N′-(2-ethyl-3-methoxy-benzoyl) hydrazide] |  |  |  | 0.964 |  |  |  | 991 | 1469 | 589 | 2.8
COc1cc(C(=O)N(NC(=O)c2ccc3c(c2C)OCCO3)C(C)(C)C)cc(OC)c1C [RG-115637, 5-Methyl-2,3-dihydro-benzo[1,4]dioxine-6-carboxylic acid N′-tert-butyl-N′-(3,5-dimethoxy-4-methyl-benzoyl)-hydrazide] | 18 | 211 |  | 0.947 | 3.54 |  |  |  |  |  | 
